In patent US9771563B2, “Chemical approaches for generation of induced pluripotent stem cells” (The Scripps Research Institute, priority 2008, dated 2017):

Legend:
[1] = tested on: mES R1 cells; assay: Proliferation assay; assay type: cell-based, mouse; conditions: 2 μM BayK, 1 μM BIX; 15, 24, 48 hours; vs DMSO
Description: mES R1 cells were plated onto gelatin-coated 6-well plates at a density of 2×10^5 cells/well in complete mES cell media. Upon cell attachment, app. 12 hours, the cells were treated either with DMSO, 1 μM BIX, 2 μM BayK, and a combination of both, in triplicate. At 15, 24 and 48 hours, the cells were detached using trypsin, and counted using a hemocytometer. Trypan blue (Sigma-Aldrich, St. Louis, Mo.) was used for dead cell exclusion.

[2] = tested on: primary OG2 neural progenitor cells; assay: iPS cell induction from neural progenitor cells after retroviral transduction; assay type: cell-based, mouse
Description: The reporter neural progenitor cells were generated using a well established protocol by differentiating the Oct4-GiP mESCs grown in monolayer on gelatin in a chemically defined medium/CDM condition in the absence of serum and other growth factors/cytokines at low cell density for eight days, followed by neurophere formation and subsequent serial passaging in single cells in neural cell expansion media supplemented with 10 ng/ml of bFGF and EGF in monolayer for over six passages/24 days. The resulting neural progenitor cells were homogenous by cell morphology and neural marker expression, and were confirmed to be GFP negative and puromycin sensitive. Such neural progenitor cells plated in monolayer in conventional mESC growth media were transduced with combinations of four, three, or two of the four factors, followed by treating the transduced cells with individual small molecules from a small known drug collection in a typical 6-well format. The compound treatment and culture were continued for additional ten days before puromycin was added. The number of green and puro-resistant colonies was counted at day 14. In comparison to the only four-gene transduced neural cells as the positive control, compound conditions that generated more green colonies than the corresponding gene-only conditions were picked as primary hits. To further confirm these primary hit conditions, we chose to use a late passage of mouse CNS neural progenitor cells (Do, J. T. et al., Stem Cells 25, 1013-1020 (2007)) that were derived from fetal brain of OG2^+/−/ROSA26^+/− transgenic mice (which contain an Oct4-GFP reporter) and expanded in monolayer under the same neural CDM condition as the above with 10 ng/ml of bFGF and EGF. Such cells truly from a non-pluripotent tissue would be devoid of concerns of any contaminating ES cell in the above screening system, which is highly unlikely with all appropriate controls. Similar culture conditions and reprogramming assays were performed using the OG2 neural progenitor cells except that puromycin was not used and green colonies were picked out and characterized by staining of Nanog, SSEA1 and ALP.
mESC-derived or primary OG2 mouse neural progenitor cells were plated into Matrigel (1:50, BD Biosciences) coated 6-well plates at 3.5×10^4 cells/well in the neural progenitor cell expansion media. After one day these cells were transduced with retrovirus for overnight, and the medium was changed into the mESC growth media [DMEM, 5% FBS, 10% KSR, 1× non-essential amino acids (Gibco), 2 mM L-glutamine (Gibco), 0.1 mM β-mercaptoethanol (Gibco) and 10^3 unit/ml LIF (Chemicon)] with or without BIX01294 (0.5-1 μM). GFP-positive iPS cell colonies appeared after 9-14 days, and were picked out and expanded on MEF feeder cells with the mESC growth media.

[3] = tested on: mouse embryonic fibroblasts (129 or OG2 MEFs); assay: Screen for iPSC generation from MEFs transduced with Oct4/Klf4 (OK); assay type: cell-based
Description: Unmodified MEFs derived from E13-14 embryos of the 129 mice were used for the initial screen. MEFs were plated on Matrigel at 3.5×10^4 cells/well of a 6-well plate and transduced with OK (retroviral vectors expressing Oct4 and Klf4) alone. Within 14-21 days, treated cells were assessed for the appearance of colonies that had the characteristic embryonic stem cell (ESC) colony morphology and were positive for the pluripotency marker alkaline phosphatase (ALP). Such OK-transduced cells generated only a few small non-compact colonies, which were weakly positive for ALP expression. These colonies initially appeared within 21 days after viral transduction and were difficult to expand. Therefore, such assay system offered a clean background for the identification of small molecules having desirable reprogramming inducing activity. Using this system, compounds from a library of around 2000 known small molecules (see Experimental Procedures below) were screened and were identified as hits when they induced the appearance of ESC colonies that were strongly positive for ALP within 14-21 days after treatment. This image-based method provided a more accurate assessment of reprogramming as compared to homogenous reporter-based assay. BIX appeared to have the strongest effect with reproducible induction of more than 1-2 compact ESC-like colonies with high ALP expression. We observed that when MEFs were treated with BIX after OK viral transduction, compact colonies with strong ALP expression could be readily detected within approximately 14-21 days. These cells were also positive for Nanog, Oct4 and SSEA-1 expression. […] However, the reprogramming efficiency in MEFs transduced with OK and treated with BIX was still low, about 2 colonies/3.5×10^4 cells, in comparison to the four factor-induced reprogramming of MEFs or the OK/BIX NPC reprogramming (Shi, Y. et al., Cell Stem Cell, 2:525-528 (2008)). Therefore, we conducted a second screen using a similar protocol, but where BIX was added to the basal media after OK viral transduction. This provided a more permissive platform to identify new small molecules that could further improve reprogramming efficiency. More importantly, this second screen could facilitate discovery of small molecules that impact reprogramming in a more specific manner, for example by acting on signal transduction pathways rather than on histone or DNA modifying enzymes. In this second screen, we again assayed the library of around 2000 known small molecules (see Experimental Procedures), and confirmed two compounds that were able to act in a synergistic manner with BIX to improve reprogramming based on the criteria of the screen. […] Therefore, RG108 was not pursued further for this study. Instead, we focused our phenotypic and functional characterization on another small molecule that was identified in the second screen, BayK, an L-calcium channel agonist. […] Therefore, BayK might play a more specific role in the reprogramming process. When 129 MEFs were transduced with empty retrovirus (negative control); no colonies observed. When 129 MEFs were transduced with OK without small molecules; few small flattened colonies with weak ALP expression present. […] When OK-transduced MEFs were treated with BIX in combination with BayK, a significant increase in the number of ALP^+ colonies that closely resemble the mESC morphology could be observed (˜7 colonies) as compared to OK-transduced MEFs treated with BIX alone (˜2 colonies).
Primary 12952/SvPasCrlf (primary screen) or ROSA26^+/−/OG2^+/− (secondary screen) MEFs were plated onto Matrigel (1:50; BD Biosciences, Bedford, Mass.) coated dishes at a density of 3.5×10^4 cells per well of a 6-well plate. Twenty-four hours later, these cells were transduced overnight with defined retroviruses at 37° C., 5% CO2. […] (all products were from Invitrogen, Carlsbad, Calif., except where mentioned). […]

COc1cc2nc(N3CCCN(C)CC3)nc(NC3CCN(Cc4ccccc4)CC3)c2cc1OC [BIX01294]
proliferation of mES cells (cell number) [1]: does not increase the proliferation of mES cells | appearance of GFP+ iPS cell colonies after transduction and treatment ([2]; OG2 neural progenitor cells transduced with Oct4/Klf4 retroviruses): 12 days | kinetics of reprogramming ([2]; Oct4/Klf4 viral transduction, BIX01294 treatment): didn't significantly shorten the kinetics of reprogramming | reprogramming efficiency ([2]; Oct4/Klf4 viral transduction, BIX01294 treatment (0.5-1 μM)): significantly improve the reprogramming efficiency to or higher than the level of using viral transduction of all four factors | generation of iPS cells in the absence of Oct4 expression ([2]; viral transduction of Klf4, Sox2 and cMyc with simultaneous treatment): can also generate iPS cells | reprogramming efficiency (GFP+ colonies) ([3]; OG2 MEFs transduced with OK, FIG. 3): 2.5±0.7 colonies per 3.5×10^4 cells | number of ALP+ colonies that closely resemble the mESC morphology ([3]; OK-transduced 129 MEFs, 14-21 days): about 2 colonies
